In publication PMC4459817, “Vasculotide reduces endothelial permeability and tumor cell extravasation in the absence of binding to or agonistic activation of Tie2” (EMBO Molecular Medicine, 2015):

Test system: CMPTX-labeled tumor cells across HMVEC-DBl
Test: modified Boyden chamber, trans-endothelial tumor cell migration, HMVEC-DBl
Assay type: cell-based, human
Conditions: Fig1E
Method: ECs were first treated with Vasculotide (VT), PBS (vehicle/negative control), Ang1 (positive control), PEG-Cys (polyethylene glycol backbone), T7c (non-PEGylated CHHHRHSF peptides), or VT in the presence of 100-fold molar excess of T7c. The concentrations used, 10–20 ng/mL VT and 200–400 ng/mL Ang1, are estimated molar equivalents (0.71–1.43 nM). Thirty minutes later, ECs were stimulated with thrombin, 0.1% BSA (vehicle/negative control), or EDTA (positive control). Another 30mins later, the amount of FITC-dextran diffusion into the lower chambers (A, D) provides a measure of endothelial permeability. CMTPX-labeled tumor cells (TCs) were then dispensed into inserts, and the amount of TC fluorescence emitting from the underside of insert membranes after 20 h (B–C) or 28 h (E) reflects the efficiency of trans-endothelial TC migration. […] Three experiments (twice with HMVEC-LBl and once with HMVEC-DBl) were run with n = 3–5 inserts (independent biological replicates) per group and analyzed by two-sampled unpaired t-tests. […]
Endothelial cells (ECs) were grown on cell culture inserts with uncoated 8-μm-pore PET filter membranes to 100% confluency. […] After 30 min of thrombin stimulation or 4–6 h of TC-CM stimulation, FITC fluorescence (ex/em = 490/520 nm) was measured from a 50 μl sample of the lower chamber media. […]

Sequence: CHHHRHSF [Vasculotide, 4-armed maleimide-functionalized polyethylene glycol (PEG) backbone to link together four cysteine-capped T7 peptides, that is, CHHHRHSF]
- thrombin-stimulated migration of CMTPX-labeled TCs (28 h): trends of reducing thrombin-stimulated migration
- TC migration effect of VT in presence of 100-fold molar excess of T7c: dampened the effects of VT
